Assay results from patent US20230277630A1, “METHODS AND COMPOSITIONS FOR TREATING AMYOTROPHIC LATERAL SCLEROSIS” (Amylyx Pharmaceuticals, Inc., priority 2022, published 2023).

Columns and labels:
human hepatocytes = settings: 72 h, 100 µM
Procedure: Plateable and inducible cryopreserved human hepatocytes were thawed and isolated in human hepatocyte thawing medium. […] After attachment (4 hours), the medium was changed to fresh hepatocyte culture medium for overnight cell recovery. […] A positive control (100 μM chlorpromazine) was treated in parallel. […] The absorbance of formazan, which is proportional to the number of viable cells, was measured spectrophotometrically using the CellTiter 96® AQueous One Solution Cell Proliferation Assay (MTS).

hrCYP2C9 = hrCYP2C9 (Homo sapiens, UniProt P11712)
Sequence of hrCYP2C9 (P11712 whole entry): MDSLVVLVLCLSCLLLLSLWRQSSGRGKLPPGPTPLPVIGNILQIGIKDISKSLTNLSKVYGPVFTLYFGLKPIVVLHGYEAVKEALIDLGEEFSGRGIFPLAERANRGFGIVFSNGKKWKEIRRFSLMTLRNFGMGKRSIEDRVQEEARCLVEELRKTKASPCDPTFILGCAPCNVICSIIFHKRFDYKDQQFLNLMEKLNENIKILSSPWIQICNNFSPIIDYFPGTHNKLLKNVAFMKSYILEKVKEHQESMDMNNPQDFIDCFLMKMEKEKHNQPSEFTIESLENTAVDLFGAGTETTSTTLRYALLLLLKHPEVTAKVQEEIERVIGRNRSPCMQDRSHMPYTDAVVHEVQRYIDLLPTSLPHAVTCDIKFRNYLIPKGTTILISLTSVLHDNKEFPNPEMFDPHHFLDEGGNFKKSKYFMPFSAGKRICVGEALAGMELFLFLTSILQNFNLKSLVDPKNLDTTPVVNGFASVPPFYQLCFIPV

[1] = CYP reaction phenotyping: CYP control (negative control without CYP enzymes); settings: pH 7.4
Procedure: The reaction was initiated by the addition of NADPH, followed by incubation at 37° C.

CYP2C9 [2] = target: T1, CYP2C9 (Homo sapiens, UniProt P11712); settings: 4 μM, pH 7.4
T1 sequence (P11712 whole entry): as above
Procedure: The remaining of TA (expressed as the peak area ratio of test article to IS) was determined by LC-MS/MS. CYP enzyme activities of the HLM were verified in parallel by determining the formation of individual CYP probe metabolites by LC-MS/MS using standard curves.

hrCYP3A4 = hrCYP3A4 (Homo sapiens, UniProt P08684); assay: Formation of CYP probe metabolites in hrCYPs; type: in vitro ADME; settings: Formation rate(hrCYP)/Formation rate(Negative Control)
Sequence of hrCYP3A4 (P08684 whole entry): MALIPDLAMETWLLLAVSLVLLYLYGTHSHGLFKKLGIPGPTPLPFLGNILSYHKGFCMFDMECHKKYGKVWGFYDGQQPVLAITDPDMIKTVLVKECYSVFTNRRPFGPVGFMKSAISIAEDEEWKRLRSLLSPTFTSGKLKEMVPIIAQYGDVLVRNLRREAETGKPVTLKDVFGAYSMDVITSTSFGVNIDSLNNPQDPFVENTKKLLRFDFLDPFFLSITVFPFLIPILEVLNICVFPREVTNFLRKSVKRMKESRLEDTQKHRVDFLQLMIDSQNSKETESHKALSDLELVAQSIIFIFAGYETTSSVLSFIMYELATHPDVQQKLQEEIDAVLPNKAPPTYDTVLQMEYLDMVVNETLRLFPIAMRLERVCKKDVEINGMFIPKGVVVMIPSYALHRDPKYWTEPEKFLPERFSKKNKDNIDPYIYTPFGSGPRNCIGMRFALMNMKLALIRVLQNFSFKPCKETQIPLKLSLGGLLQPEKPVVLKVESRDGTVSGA

CYP2C8 = target: T2, CYP2C8 (Homo sapiens, UniProt P10632); assay: Inhibition of CYP2C8 activity in human liver microsomes; type: in vitro ADME; parameters: co-incubated with pooled HLM (0.25 mg protein/mL); from tissue; host or cells: pooled human liver microsomes
T2 sequence (P10632 1-490): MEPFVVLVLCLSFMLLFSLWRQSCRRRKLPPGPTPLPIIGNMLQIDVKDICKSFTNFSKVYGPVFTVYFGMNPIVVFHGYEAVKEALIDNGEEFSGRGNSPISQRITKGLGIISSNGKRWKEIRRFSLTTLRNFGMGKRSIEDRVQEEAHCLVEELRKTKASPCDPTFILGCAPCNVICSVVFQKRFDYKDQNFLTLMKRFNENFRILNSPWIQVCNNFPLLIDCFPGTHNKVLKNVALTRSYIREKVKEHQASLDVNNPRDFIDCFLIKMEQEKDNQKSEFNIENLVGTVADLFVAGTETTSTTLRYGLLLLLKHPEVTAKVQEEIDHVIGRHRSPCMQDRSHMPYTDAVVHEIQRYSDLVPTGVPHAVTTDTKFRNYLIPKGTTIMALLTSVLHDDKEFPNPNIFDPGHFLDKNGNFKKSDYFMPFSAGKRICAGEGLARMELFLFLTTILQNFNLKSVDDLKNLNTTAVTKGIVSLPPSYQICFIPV
Procedure: […]. […] Negative (vehicle) controls were conducted without TA.

CYP2D6 = CYP2D6 (Homo sapiens, UniProt P10635); assay: Inhibition of CYP2D6 activity in human liver microsomes; type: in vitro ADME; parameters: co-incubated with pooled HLM (0.25 mg protein/mL); from tissue; host or cells: pooled human liver microsomes; settings: pooled human liver microsomes, pH 7.4, read-out: % of Control Enzyme Activity (n = 3) Average
Sequence of CYP2D6 (P10635 whole entry): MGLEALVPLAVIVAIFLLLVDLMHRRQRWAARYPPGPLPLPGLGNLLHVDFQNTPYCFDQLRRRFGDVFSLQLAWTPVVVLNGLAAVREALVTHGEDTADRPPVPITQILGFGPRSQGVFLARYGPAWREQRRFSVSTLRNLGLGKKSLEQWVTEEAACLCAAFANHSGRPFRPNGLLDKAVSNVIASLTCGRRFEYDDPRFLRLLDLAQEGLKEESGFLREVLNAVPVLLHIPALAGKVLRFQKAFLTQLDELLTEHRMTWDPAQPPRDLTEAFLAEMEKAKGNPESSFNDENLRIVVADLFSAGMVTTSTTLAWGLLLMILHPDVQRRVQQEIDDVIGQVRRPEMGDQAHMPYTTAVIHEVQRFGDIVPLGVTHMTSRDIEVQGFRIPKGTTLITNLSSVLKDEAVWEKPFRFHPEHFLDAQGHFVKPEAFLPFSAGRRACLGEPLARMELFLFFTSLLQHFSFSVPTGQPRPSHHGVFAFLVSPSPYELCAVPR

CYP2C9 [3] = target: T1, CYP2C9; assay: Inhibition of CYP2C9 activity in human liver microsomes
Procedure: CYP enzyme activity was determined by measuring the formation of each CYP probe metabolite by LC-MS/MS.
The total organic solvent content in the final incubation was less than 1% (DMSO ≤0.1%, other organic solvent ≤1%). […] The reaction was initiated by the addition of NADPH, followed by incubation at 37° C. for 10-30 minutes depending on the individual CYP isoform. The reaction was terminated by the addition of two volumes of ice-cold acetonitrile (ACN) containing an internal standard (IS, stable isotope-labeled CYP probe metabolite). Negative (vehicle) controls were conducted without TA. Positive controls were performed in parallel using known CYP inhibitors. […] The formation of individual CYP probe metabolites was determined by LC-MS/MS.
The enzyme activity was expressed as the peak area ratio of probe metabolite to IS, measured by LC-MS/MS.

OCT2 [4] = target: T3, OCT2 (Homo sapiens, UniProt O15244); assay: OCT2 inhibitor (IC50) assessment, MPP+ uptake in transfected HEK cells; settings: 5 μM MPP+ + 300 μM Imipramine
T3 sequence (O15244 1-555): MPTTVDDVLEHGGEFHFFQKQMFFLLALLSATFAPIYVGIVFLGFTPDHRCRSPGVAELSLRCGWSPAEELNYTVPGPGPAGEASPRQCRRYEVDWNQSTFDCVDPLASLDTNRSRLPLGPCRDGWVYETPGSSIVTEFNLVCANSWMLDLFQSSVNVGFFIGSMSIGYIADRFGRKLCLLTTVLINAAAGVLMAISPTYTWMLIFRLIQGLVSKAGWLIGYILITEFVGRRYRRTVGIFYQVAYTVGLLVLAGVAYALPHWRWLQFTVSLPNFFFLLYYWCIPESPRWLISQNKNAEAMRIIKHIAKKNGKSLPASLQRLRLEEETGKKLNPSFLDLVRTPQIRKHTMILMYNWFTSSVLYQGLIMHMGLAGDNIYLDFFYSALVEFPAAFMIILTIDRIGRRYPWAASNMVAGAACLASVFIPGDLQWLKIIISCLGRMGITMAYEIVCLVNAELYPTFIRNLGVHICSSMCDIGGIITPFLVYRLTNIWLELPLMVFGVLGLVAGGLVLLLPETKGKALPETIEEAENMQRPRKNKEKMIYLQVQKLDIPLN

OCT2 [5] = target: T3, OCT2; assay: in vitro; settings: probe MPP+ (5 μM)
OAT3 [6] = target: T4, OAT3 (Homo sapiens, UniProt Q8TCC7); assay: in vitro; settings: probe furosemide (5 μM)
T4 sequence (Q8TCC7 1-542): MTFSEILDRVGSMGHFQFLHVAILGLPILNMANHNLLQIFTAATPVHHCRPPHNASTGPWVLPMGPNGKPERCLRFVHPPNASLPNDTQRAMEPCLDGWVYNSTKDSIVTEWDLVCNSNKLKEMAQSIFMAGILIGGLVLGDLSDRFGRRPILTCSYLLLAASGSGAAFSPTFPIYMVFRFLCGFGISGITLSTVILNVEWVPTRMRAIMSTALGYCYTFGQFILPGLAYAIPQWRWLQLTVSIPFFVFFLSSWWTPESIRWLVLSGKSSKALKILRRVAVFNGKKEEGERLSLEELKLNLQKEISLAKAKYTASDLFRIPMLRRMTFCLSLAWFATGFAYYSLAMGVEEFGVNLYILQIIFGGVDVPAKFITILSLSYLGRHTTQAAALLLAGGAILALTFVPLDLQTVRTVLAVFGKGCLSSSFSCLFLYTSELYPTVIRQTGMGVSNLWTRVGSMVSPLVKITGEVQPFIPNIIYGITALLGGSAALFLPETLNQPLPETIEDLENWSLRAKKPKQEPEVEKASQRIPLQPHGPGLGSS

OAT3 [7] = target: T4, OAT3; assay: OAT3 inhibitor (IC50) assessment, furosemide uptake in transfected HEK cells; settings: 5 μM Furosemide + 100 μM Probenecid
MATE2K [8] = target: T5, MATE2K (Homo sapiens, UniProt Q86VL8); assay: MATE2K inhibitor (IC50) assessment, metformin uptake in transfected HEK cells; settings: 50 μM Metformin + 1 μM Pyrimethamine
T5 sequence (Q86VL8 1-566 isoform Q86VL8-3): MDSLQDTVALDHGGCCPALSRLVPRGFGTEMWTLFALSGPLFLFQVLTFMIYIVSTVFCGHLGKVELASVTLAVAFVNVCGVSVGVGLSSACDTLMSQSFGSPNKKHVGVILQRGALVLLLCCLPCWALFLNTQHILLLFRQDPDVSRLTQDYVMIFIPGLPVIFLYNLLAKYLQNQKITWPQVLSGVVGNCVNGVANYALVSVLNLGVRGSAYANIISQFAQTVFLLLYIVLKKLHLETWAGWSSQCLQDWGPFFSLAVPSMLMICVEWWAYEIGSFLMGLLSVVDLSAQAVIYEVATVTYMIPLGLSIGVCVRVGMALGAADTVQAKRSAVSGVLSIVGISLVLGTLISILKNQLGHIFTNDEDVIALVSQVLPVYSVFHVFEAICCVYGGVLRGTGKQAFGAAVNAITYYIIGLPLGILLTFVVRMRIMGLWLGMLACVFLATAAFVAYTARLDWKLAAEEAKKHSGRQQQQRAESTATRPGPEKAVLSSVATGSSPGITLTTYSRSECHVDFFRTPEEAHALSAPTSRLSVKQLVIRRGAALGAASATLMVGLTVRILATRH

MATE2K [9] = target: T5, MATE2K; assay: in vitro; settings: probe metformin (50 μM)

## CN(C)CCCN1c2ccccc2Sc2ccc(Cl)cc21 [Chlorpromazine, chlorpromazine]
Human hepatocytes
  % MTS Absorbance Relative to Vehicle Control: 24.3%
  Formazan Absorbance (n = 3) Mean: 0.160

## O=C(O)Cc1ccccc1Nc1c(Cl)cccc1Cl [Diclofenac]
hrCYP2C9
  Formation Rate Ratio: >>2
hrCYP2C9; human, 20 min, 6 μM, pH 7.4
  Formation Rate: 845 pmol metabolite/min/mg Supersome protein
  Measured Metabolite: 1.56 µM
[1]
  Formation Rate: 0 pmol metabolite/min/mg Supersome protein
  Measured Metabolite: 0 µM
CYP2C9 [2]
  Formation Rate Ratio: 7.7

## Cc1ncc2n1-c1ccc(Cl)cc1C(c1ccccc1F)=NC2 [Midazolam, reference compound]
hrCYP3A4
  Formation Rate Ratio: >>2
[1]
  Formation Rate: 0 pmol metabolite/min/mg Supersome protein
  Measured Metabolite: 0 µM

## CC(C)(O)c1ccccc1CC[C@@H](SCC1(CC(=O)O)CC1)c1cccc(/C=C/c2ccc3ccc(Cl)cc3n2)c1 [Montelukast]
CYP2C8; human, microsomes, pH 7.4
  activity at 3.33 μM: 14.6%
  activity at 10 μM: 5.31%
CYP2C8; positive inhibitor, HLM
  IC50: 517 nM

## C=C[C@H]1C[N@@]2CC[C@H]1C[C@@H]2[C@@H](O)c1ccnc2ccc(OC)cc12 [Quinidine]
CYP2D6
  activity at 10 μM: 5.61%

## Nc1ccc(S(=O)(=O)Nc2ccnn2-c2ccccc2)cc1 [Sulfaphenazole]
CYP2C9 [3]; Sulfaphenazole 3.33 μM
  % of Control Enzyme Activity (n = 3) Average: 23.8%
CYP2C9 [3]; Sulfaphenazole 10.0 μM
  % of Control Enzyme Activity (n = 3) Average: 14.9%

## C[C@]12CC[C@H]3[C@@H](CCC4=CC(=O)CC[C@@]43C)[C@@H]1CC[C@@H]2O [Testosterone, reference compound]
hrCYP3A4
  Formation Rate Ratio: >>2
[1]
  Formation Rate: 0 pmol metabolite/min/mg Supersome protein
  Measured Metabolite: 0 µM

## CN(C)CCCN1c2ccccc2CCc2ccccc21 [imipramine]
OCT2 [4]
  Percentage Inhibition of OCT2: 97.9%
OCT2 [5]
  inhibition at 300 μM: 97.9%

## CCCN(CCC)S(=O)(=O)c1ccc(C(=O)O)cc1 [probenecid]
OAT3 [6]
  inhibition at 100 μM: 99.1%
OAT3 [7]
  Percentage Inhibition of OAT3: 99.1%

## CCc1nc(N)nc(N)c1-c1ccc(Cl)cc1 [pyrimethamine]
MATE2K [8]
  Percentage Inhibition of MATE2K: 85.3%
MATE2K [9]
  inhibition at 1 μM: 85.3%
